Reference: US8207206B2, “(S,R)-3-phenyl-4,5 dihydro-5-isoxazole acetic acid-nitric oxide and use thereof as anti-cancer and antiviral agent” (OncoNOx APS, priority 2007, dated 2012)

Assays:
L929 cells [1] = test: LDH release assay (cell death); format: cell-based, mouse; settings: L929, dose-dependent (24 h) and time-dependent (25 μg/ml), significant after 18 h
Description: (§1) As a marker of necrotic cell death, the release of intracellular enzyme LDH, which mediates the conversion 2,4-dinitrophenylhydrazine into visible hydrazone precipitate in the presence of pyruvate, was measured. The cells were seeded in flat-bottom 96-well plates as indicated above and the assay was performed after 24 h incubation, as previously described (Decker et al). The percentage of dead cells was determined using the following formula: [(E−C)/(T−C)]×100, wherein E is the experimental absorbance of treated cultures measured at 492 nm, C is the absorbance of supernatants of control untreated cells, and T is the absorbance corresponding to the maximal (100%) LDH release of Triton-lysed cells. Cell cycle analysis and apoptosis detection were carried out exactly as described in the literature (Mijatovic CMLS 2005). Acidic vesicular organelles, which characterise autophagy, are stained by vital dye acridin orange. The intensity of red fluorescence is proportional to the acidity and volume of the organelles, while the cytoplasm and nucleolus emits bright green and dim red (Kanzawa 2004). […] Green (510-530 nm) and red (>650 nm) fluorescence emission from 10^4 cells illuminated with blue (488 nm) excitation light was measured with a FACS Calibur and analyzed using CellQuest software.

C6 cells = test: Cell cycle analysis and apoptosis detection (PI staining, flow cytometry); format: cell-based, rat; settings: C6, 25 μg/ml, 24 h
Description: as §1

B16 cells = test: ROS measurement by DHR fluorescence (flow cytometry); format: cell-based, mouse; settings: B16, 25 μg/ml, 24 h
Description: (§2) The cells grown in the 6-well plate were stained with 1 μM dihydrorhodamine 123 (DHR) 20 min before the treatment with the test compound. At the end of the cultivation period the cells were detached, washed and resuspended in PBS. Analysis of ROS release was performed with a FACSCalibur and analyzed using CellQuest Pro software (Kaludjerovic 2005).

L929 cells [2] = test: as above; format: cell-based, mouse; settings: L929, 25 μg/ml, 24 h
Description: as §2

[3] = test system: MAP kinases (p38 MAPK, ERK, JNK) in B16 cells; test: Cell-based ELISA for activation of MAP kinases; design: species or system mouse; settings: B16, 25 μg/ml, time course
Description: (§3) Activation of MAP kinases (p38 MAPK, extracellular signal-regulated kinase—ERK, and Jun-N-terminal kinase—JNK) or nuclear factor-κB (NF-κB) was determined by means of a slightly modified method of cell-based ELISA by Versteeg et al. (Versteeg 2000). Since MAP kinases are activated by phosphorylation, and phosphorylation of the inhibitory subunit IκB is a necessary step for NF-κB activation, we used antibodies specific for phosphorylated forms of MAP kinases (p-p38, p-ERK and p-JNK) and IκB (p-IκB). The cells were grown overnight in 96-well flat-bottom plates in a culture medium containing 0.5% FCS and then treated with the test compound diluted in conventional culture medium. At the end of treatment period the cells were fixed in 4% parformaldehyde, endogenous peroxydase was quenched with 1% H2O2 in PBS containing 0.1% Triton X-100 (PBST), and unspecific binding of antibodies was blocked with a PBST solution containing 10% FCS. Primary mouse monoclonal antibodies specific for rat/mouse p-ERK, p-p38, p-JNK, p-IκB (1:200; all from Santa Cruz Biotechnology, Santa Cruz, Calif.) were applied in PBST supplemented with 2% bovine serum albumine (PBSTB), followed by secondary peroxidase-conjugated goat anti-mouse IgG (1:2500 in PBSTB; USB corporation, Cleveland, Ohio) for anti-p-ERK, anti-p-JNK and anti-p-IκB, or anti-mouse IgM (1:4000; USB corporation) for detection of anti-p-p38. Incubation with antibodies was carried out at 37° C. for 1 h. After 15 min incubation with peroxydase substrate TMB and subsequent addition of 0.1 M HCl, the absorbance at 450 nm was measured in an automated microplate reader. To enable comparison between treatment and control, the resulting absorbances were corrected for the cell number determined by crystal violet staining, as described in the original protocol. The results are presented as relative expression in comparison with the control value, which was arbitrarily set to 1.

[4] = test system: MAP kinases (p38 MAPK, ERK, JNK) in L929 cells; test: Cell-based ELISA for activation of MAP kinases; design: species or system mouse; settings: L929, 25 μg/ml, time course
Description: as §3

ConA-induced hepatitis = test: Hepatitis induced by concanavalin (ConA) injection in NMRI mice; format: in vivo; settings: prophylactic, all tested doses (0.5 and 1 i.p., 5 mg/mouse p.o.), -24 and -1 h prior to ConA, blood 8 h after ConA, vs vehicle
Description: ConA-induced hepatitis is a cell-mediated immunoinflammatory condition similar to different immunoinflammatory conditions of liver diseases in humans that can be induced in mice by a single intravenous injection of ConA. This disease is characterized by a marked increase in the plasma levels of transaminase shortly (8-24 hours) after ConA challenge and simultaneous infiltration of the liver with neutrophils, macrophages and T cells followed by apoptosis and necrosis of the hepatocytes.
Hepatitis was induced by ConA (Sigma Chemical, St. Louis, Mo.) injection into the tail veins in six to 9 weeks Naval Medical Research Institute (NMRI) male mice. Four groups of mice were treated or i.p. with Git27-NO at the doses of 0.5 and 1 or p.o. at 5 mg/mouse or with the vehicle, −24 and −1 hours prior to ConA. The animals were sacrificed for blood collection 8 hours after Con A injection and plasma alanine aminotransferase (ALT) activity was determined by a standard photometric assay using a bichromatic analyzer.

## N#Cc1c(COC(=O)CC2CC(c3ccccc3)=NO2)no[n+]1[O-] (racemic) [GIT27-NO, (S,R)-3-phenyl-4,5 dihydro-5-isoxazole acetic acid-nitric oxide]
L929 cells [1]
  LDH release: induced LDH release
C6 cells
  cell cycle effect: cell cycle arrest in G0/G1 phase
  percentage of cells in subG compartment (hypodiploid cells): < 10%
B16 cells
  intracellular production of ROS (DHR fluorescence): markedly increased
L929 cells [2]
  intracellular production of ROS (DHR fluorescence): markedly increased
[3]
  activation of ERK1/2: did not affect the activation
  activation of JNK: significant time-dependent activation
  activation of p38: only slight activation
[4]
  activation of ERK1/2: marked and sustained activation
  activation of p38: significant transient activation
  expression (activation) of JNK: without affecting the expression
ConA-induced hepatitis
  plasma ALT activity: significantly reduced
